The subject of the test is HCV replicon (1B Replicon). In words: HCV replicon assay, inhibition of viral replication (luciferase). In kind it is cell-based. Particulars: Hepatitis C virus, 72 h; 10 uM compound; human hepatoma Huh-7 HCV replicon cells; 3 days incubation; luminescence; read-out: % inh at 10 uM (1B Replicon). On the procedure:
The anti-HCV activity of the compounds of this invention was tested in a human hepatoma Huh-7 cell line harboring a HCV replicon. The assay comprised the following steps:
Serial dilution was performed in 100% DMSO in a 384-well plate. A solution containing a compound at 225-fold concentration of the starting final serial dilution concentration was prepared in 100% DMSO and 15 uL added to the pre-specified wells in column 3 or 13 of a polypropylene 384-well plate. The rest of the 384-well plate was filled with 10 uL 100% DMSO except for columns 23 and 24, where 10 uL of 500 uM a HCV protease inhibitor (ITMN-191) in 100% DMSO was added. The HCV protease inhibitor was used a control of 100% inhibition of HCV replication. The plate was then placed on a Biomek FX Workstation to start the serial dilution. The serial dilution was performed for ten cycles of 3-fold dilution from column 3 to 12 or from column 13 to 22.
To each well of a black polypropylene 384-well plate, 90 μL of cell media containing 1600 suspended Huh-7 HCV replicon cells was added with a Biotek uFlow Workstation. A volume of 0.4 μL of the compound solution was transferred from the serial dilution plate to the cell culture plate on a Biomek FX Workstation. The DMSO concentration in the final assay condition was 0.44%. The plates were incubated for 3 days at 37° C. with 5% CO2 and 85% humidity.
b) Assessment of inhibition of viral replication: The calcein-PBS solution in the 384-well cell culture plate was aspirated with a Biotek EL405 plate-washer. A volume of 20 μL of Dual-Glo luciferase buffer (Promega, Dual-Glo Luciferase Assay Reagent, cat. #E298B) was added to each well of the plate with a Biotek uFlow Workstation. The plate was incubated for 10 minutes at room temperature. A volume of 20 μL of a solution containing 1:100 mixture of Dual-Glo Stop & Glo substrate (Promega, Dual-Glo Luciferase Assay Reagent, cat. #E313B) and Dual-Glo Stop & Glo buffer (Promega, Dual-Glo Luciferase Assay Reagent, cat. #E314B) was then added to each well of the plate with a Biotek uFlow Workstation. The plate was incubated at room temperature for 10 minutes before the luminescence signal was measured with a Perkin Elmer Envision Plate Reader.
The percent cytotoxicity was determined by calcein AM conversion to fluorescent product. The average fluorescent signal from the DMSO control wells were defined as 100% nontoxic. The individual fluorescent signal from testing compound treated well was divided by the average signal from DMSO control wells and then multiplied by 100% to get the percent viability. The percent anti-HCV replication activity was determined by the luminescence signal from the testing well compared to DMSO controls wells. The background signal was determined by the average luminescence signal from the HCV protease inhibitor treated wells and was subtracted from the signal from the testing wells as well as the DMSO control wells. Following 3-fold serial dilutions, the EC50 and CC50 values were calculated by fitting % inhibition at each concentration to the following equation: % inhibition=100%/[(EC50/[I])^b+1]
% inhibition values at any specific concentration, for example 10 μM, can also be derived from the formula above.

Inhibition data for 12 molecules are collected here from US8815858B2, “Heterocyclic flaviviridae virus inhibitors” (Gilead Sciences, Inc., priority 2010, dated 2014).

For the molecule `Fc1ccccc1-c1cc2ncn(Cc3cc(-c4ccc(C(F)(F)F)cc4C(F)(F)F)no3)cc-2n1`, the inhibition at 10 µM is 99.6%. Then `Fc1ccccc1-c1cc2ncn(Cc3nnc(-c4ccc(C(F)(F)F)cc4C(F)(F)F)s3)cc-2n1`, with 100%. Then `COc1ccc(-c2nnc(Cn3cnc4cc(-c5ccccc5F)nc-4c3)s2)c(C(F)(F)F)c1`, with 100%.

`Fc1ccccc1-c1cc2ccn(Cc3cc(-c4ccc(C(F)(F)F)cc4C(F)(F)F)no3)nc-2n1`: the inhibition at 10 µM was 77%. Then `Fc1ccccc1-c1cc2ncn(Cc3ccc(-c4ccc(C(F)(F)F)cc4C(F)(F)F)nn3)cc-2n1`, with 100%; and `COc1ccc(-c2nnc(Cn3ccc4cc(-c5ccccc5F)nc-4n3)s2)c(C(F)(F)F)c1`, with 98.1%; and `Fc1ccccc1-c1cc2ccn(Cc3ccc(-c4ccc(C(F)(F)F)cc4C(F)(F)F)nn3)nc-2n1`, with 97.4%. Then `COc1ccc(-c2nnc(Cn3cnc4c(Br)c(-c5ccccc5F)nc-4c3)s2)c(C(F)(F)F)c1`, with 100%.

In the case of `COc1ccc(-c2nnc(Cn3cnc4c(C#Cc5cncnc5)c(-c5ccccc5F)nc-4c3)s2)c(C(F)(F)F)c1`, the inhibition at 10 µM came out at 97.8%. With `COc1ccc(-c2nnc(Cn3cnc4c(Cl)c(-c5ccccc5F)nc-4c3)s2)c(C(F)(F)F)c1`, the inhibition at 10 µM amounted to 100%. `COc1ccc(-c2nnc(Cn3cnc4c(C(N)=O)c(-c5ccccc5F)nc-4c3)s2)c(C(F)(F)F)c1`: the inhibition at 10 µM turned out to be 36.6%.

`COc1ccc(-c2nnc(Cn3cnc4c(C#N)c(-c5ccccc5F)nc-4c3)s2)c(C(F)(F)F)c1`: the inhibition at 10 µM was 99.9%.
